The subject of the assay is BDF1 mice, P1081 chloroleukemia ip, survival T/C. The experiment in a line: NCI In Vivo Anticancer Drug Screen. Data for tumor model P1081 Chloroleukemia (intraperitoneal) in B6D2F1 (BDF1) mice. To be noted: endpoint: mean survival time, higher = longer survival. As to the method:
The antitumor activity of compounds was measured in mice bearing transplantable tumors. Survival or tumor size were measured and the results are expressed as the measurement made in the treated group (T) divided by the measurement made in the vehicle treated control group (C). The tumor model used in this assay is P1081 Chloroleukemia (intraperitoneal) in B6D2F1 (BDF1) mice

The mark [1] stands for this setting: dose: 25.0 mg/kg/injection, schedule: Q01DX010 (ip), vehicle: saline.
[2] abbreviates: dose: 12.5 mg/kg/injection, schedule: Q01DX Z (ip), vehicle: carboxymethylcellulose (CMC).
Where [3] appears, read: dose: 25.0 mg/kg/injection, schedule: Q01DX Z (ip), vehicle: carboxymethylcellulose (CMC).
Setting [4] is: dose: 62.5 mg/kg/injection, schedule: Q01DX010 (ip), vehicle: saline.
The mark [5] stands for this setting: dose: 125.0 mg/kg/injection, schedule: Q01DX010 (ip), vehicle: saline.
[6] abbreviates: dose: 250.0 mg/kg/injection, schedule: Q01DX010 (ip), vehicle: saline.

“And” between values parts separate entries of the source, which are not always exact repeats. Identical values can stand only once. Toxic doses and inconclusive results are not listed.

Turning to `CS(=O)(=O)OCC(O)C(O)COS(C)(=O)=O` (stereo not given), the T/C (dose: 94.0 mg/kg/injection, schedule: Q01DX Z (ip), vehicle: saline) is 86 % of control; the T/C (dose: 188.0 mg/kg/injection, schedule: Q01DX Z (ip), vehicle: saline) was 107 % of control; the T/C (dose: 375.0 mg/kg/injection, schedule: Q01DX Z (ip), vehicle: saline) is 95 % of control; the T/C (dose: 750.0 mg/kg/injection, schedule: Q01DX Z (ip), vehicle: saline) is 122 % of control; the T/C (dose: 1500.0 mg/kg/injection, schedule: Q01DX Z (ip), vehicle: saline) is 166 % of control; the T/C (dose: 3000.0 mg/kg/injection, schedule: Q01DX Z (ip), vehicle: saline) was 173 % of control.

For the molecule `C[C@]12CCC(=O)C[C@H]1CC[C@@H]1[C@@H]2CC[C@@]2(C)[C@H]1CC[C@]2(C)O`, the T/C is 114 % of control (dose: 62.5 mg/kg/injection, schedule: Q01DX Z (sc), vehicle: steriod suspending solution); 100 % of control (dose: 125.0 mg/kg/injection, schedule: Q01DX Z (sc), vehicle: steriod suspending solution); 110 % of control (dose: 250.0 mg/kg/injection, schedule: Q01DX Z (sc), vehicle: steriod suspending solution); 112 % of control (dose: 500.0 mg/kg/injection, schedule: Q01DX Z (sc), vehicle: steriod suspending solution).

In the case of `O=C1C(NC(=O)C2CCCCC2)=C(N2CC2)C(=O)C(NC(=O)C2CCCCC2)=C1N1CC1`, the T/C by setting is: (dose: 4.7 mg/kg/injection, schedule: Q01DX Z (ip), vehicle: carboxymethylcellulose (CMC)) 118 % of control; (dose: 9.4 mg/kg/injection, schedule: Q01DX Z (ip), vehicle: carboxymethylcellulose (CMC)) 109 % of control and 103 % of control; (dose: 18.8 mg/kg/injection, schedule: Q01DX Z (ip), vehicle: carboxymethylcellulose (CMC)) 117 % of control; under setting [1], 90 % of control; (dose: 37.5 mg/kg/injection, schedule: Q01DX Z (ip), vehicle: carboxymethylcellulose (CMC)) 112 % of control and 117 % of control; (dose: 50.0 mg/kg/injection, schedule: Q01DX010 (ip), vehicle: saline) 90 % of control. Besides, the T/C is, setting by setting: (dose: 75.0 mg/kg/injection, schedule: Q01DX Z (ip), vehicle: carboxymethylcellulose (CMC)) 109 % of control; (dose: 100.0 mg/kg/injection, schedule: Q01DX010 (ip), vehicle: saline) 90 % of control; (dose: 150.0 mg/kg/injection, schedule: Q01DX Z (ip), vehicle: carboxymethylcellulose (CMC)) 116 % of control; (dose: 300.0 mg/kg/injection, schedule: Q01DX Z (ip), vehicle: carboxymethylcellulose (CMC)) 109 % of control; (dose: 600.0 mg/kg/injection, schedule: Q01DX Z (ip), vehicle: carboxymethylcellulose (CMC)) 88 % of control.

Regarding `O=C(Nc1ccc(C2=NCCCN2)cc1)c1ccc(C(=O)Nc2ccc(C3=NCCCN3)cc2)cc1`, the T/C is, setting by setting: (dose: 0.5 mg/kg/injection, schedule: Q01DX Z (ip), vehicle: water) 109 % of control and 101 % of control; (dose: 1.0 mg/kg/injection, schedule: Q01DX Z (ip), vehicle: water) 110 % of control and 118 % of control; (dose: 4.0 mg/kg/injection, schedule: Q01DX Z (ip), vehicle: water) 162 % of control.

As to `CSc1ncnc2c1ncn2C1OC(CO)C(O)C1O` (stereo not given), the T/C is 105 % of control and 92 % of control (dose: 3.1 mg/kg/injection, schedule: Q01DX Z (ip), vehicle: carboxymethylcellulose (CMC)); 102 % of control (dose: 6.25 mg/kg/injection, schedule: Q01DX Z (ip), vehicle: carboxymethylcellulose (CMC)); 105 % of control and 90 % of control under setting [2]; 105 % of control and 98 % of control under setting [3].

For the molecule `COc1cc2c(c(OC)c1OC)-c1ccc(N)c(=O)cc1[C@@H](NC(C)=O)CC2`, the T/C (dose: 0.5 mg/kg/injection, schedule: Q01DX010 (ip), vehicle: saline) is 177 % of control; the T/C (dose: 1.0 mg/kg/injection, schedule: Q01DX010 (ip), vehicle: saline) was 188 % of control and 250 % of control; the T/C (dose: 2.0 mg/kg/injection, schedule: Q01DX010 (ip), vehicle: saline) is 100 % of control.

Consider `CC(=O)O[C@]1(C(C)=O)CC[C@H]2[C@@H]3C[C@H](C)C4=CC(=O)C=C[C@]4(C)[C@@]3(F)[C@@H](O)C[C@@]21C`, for which the T/C runs as follows: (dose: 2.5 mg/kg/injection, schedule: Q01DX Z (sc), vehicle: steriod suspending solution) 100 % of control; (dose: 5.0 mg/kg/injection, schedule: Q01DX Z (sc), vehicle: steriod suspending solution) 108 % of control; (dose: 10.0 mg/kg/injection, schedule: Q01DX Z (sc), vehicle: steriod suspending solution) 107 % of control; (dose: 12.5 mg/kg/injection, schedule: Q01DX010 (sc), vehicle: steriod suspending solution) 105 % of control and 100 % of control; (dose: 20.0 mg/kg/injection, schedule: Q01DX Z (sc), vehicle: steriod suspending solution) 108 % of control; (dose: 25.0 mg/kg/injection, schedule: Q01DX010 (sc), vehicle: steriod suspending solution) 100 % of control. Besides, the T/C was 116 % of control (dose: 40.0 mg/kg/injection, schedule: Q01DX Z (sc), vehicle: steriod suspending solution); 90 % of control and 95 % of control (dose: 50.0 mg/kg/injection, schedule: Q01DX010 (sc), vehicle: steriod suspending solution); 90 % of control and 100 % of control (dose: 100.0 mg/kg/injection, schedule: Q01DX010 (sc), vehicle: steriod suspending solution); 105 % of control (dose: 160.0 mg/kg/injection, schedule: Q01DX Z (sc), vehicle: steriod suspending solution); 93 % of control (dose: 320.0 mg/kg/injection, schedule: Q01DX Z (sc), vehicle: steriod suspending solution).

For the molecule `[I][Hg][CH2]C1COC([CH2][Hg][I])CO1` (stereo not given), the T/C runs as follows: (dose: 6.25 mg/kg/injection, schedule: Q01DX010 (ip), vehicle: saline) 110 % of control; (dose: 7.5 mg/kg/injection, schedule: Q01DX Z (ip), vehicle: carboxymethylcellulose (CMC)) 97 % of control; (dose: 12.5 mg/kg/injection, schedule: Q01DX010 (ip), vehicle: saline) 95 % of control; (dose: 15.0 mg/kg/injection, schedule: Q01DX Z (ip), vehicle: carboxymethylcellulose (CMC)) 119 % of control; under setting [1], 90 % of control; (dose: 60.0 mg/kg/injection, schedule: Q01DX Z (ip), vehicle: carboxymethylcellulose (CMC)) 88 % of control and 103 % of control.

With `CS(=O)(=O)OCCCl`, the T/C under setting [2] was 98 % of control; the T/C (dose: 18.8 mg/kg/injection, schedule: Q01DX010 (ip), vehicle: saline) is 105 % of control and 95 % of control; the T/C under setting [3] was 110 % of control; the T/C (dose: 37.5 mg/kg/injection, schedule: Q01DX010 (ip), vehicle: saline) is 110 % of control and 100 % of control; the T/C (dose: 50.0 mg/kg/injection, schedule: Q01DX Z (ip), vehicle: carboxymethylcellulose (CMC)) was 98 % of control; the T/C (dose: 75.0 mg/kg/injection, schedule: Q01DX010 (ip), vehicle: saline) was 105 % of control and 90 % of control. In addition, the T/C (dose: 100.0 mg/kg/injection, schedule: Q01DX Z (ip), vehicle: carboxymethylcellulose (CMC)) is 94 % of control and the T/C (dose: 2000.0 mg/kg/injection, schedule: Q01DX Z (ip), vehicle: carboxymethylcellulose (CMC)) is 103 % of control.

As for `O=c1cn[nH]c(=O)[nH]1`, the T/C reads like this: (dose: 4.0 mg/kg/injection, schedule: Q01DX Z (ip), vehicle: carboxymethylcellulose (CMC)) 102 % of control; (dose: 8.0 mg/kg/injection, schedule: Q01DX Z (ip), vehicle: carboxymethylcellulose (CMC)) 93 % of control; under setting [4], 95 % of control; under setting [5], 95 % of control; (dose: 125.0 mg/kg/injection, schedule: Q01DX Z (ip), vehicle: carboxymethylcellulose (CMC)) 123 % of control and 94 % of control; under setting [6], 90 % of control and 95 % of control. The T/C runs as follows: (dose: 250.0 mg/kg/injection, schedule: Q01DX Z (ip), vehicle: carboxymethylcellulose (CMC)) 117 % of control; (dose: 500.0 mg/kg/injection, schedule: Q01DX010 (ip), vehicle: saline) 110 % of control and 100 % of control; (dose: 500.0 mg/kg/injection, schedule: Q01DX Z (ip), vehicle: carboxymethylcellulose (CMC)) 117 % of control; (dose: 1000.0 mg/kg/injection, schedule: Q01DX Z (ip), vehicle: carboxymethylcellulose (CMC)) 97 % of control.

As to `COc1ccc2c(c1OC)C(=O)O[C@@H]2[C@H]1c2c(cc3c(c2OC)OCO3)CCN1C`, the T/C was 88 % of control and 90 % of control (dose: 31.3 mg/kg/injection, schedule: Q01DX010 (ip), vehicle: saline); 88 % of control and 95 % of control under setting [4]; 88 % of control and 90 % of control under setting [5]; 88 % of control and 90 % of control under setting [6].

These data come from PubChem BioAssay AID246 (DTP/NCI, 2004).
